The target in this assay is urease enzyme (Canavalia ensiformis, UniProt P07374). The following applies: for %age Activity at 25 μg (urease inhibition): 25 µg/mL; for %age Activity at 50 μg (urease inhibition): 50 µg/mL.
Chain of urease enzyme (P07374 whole entry, looked up): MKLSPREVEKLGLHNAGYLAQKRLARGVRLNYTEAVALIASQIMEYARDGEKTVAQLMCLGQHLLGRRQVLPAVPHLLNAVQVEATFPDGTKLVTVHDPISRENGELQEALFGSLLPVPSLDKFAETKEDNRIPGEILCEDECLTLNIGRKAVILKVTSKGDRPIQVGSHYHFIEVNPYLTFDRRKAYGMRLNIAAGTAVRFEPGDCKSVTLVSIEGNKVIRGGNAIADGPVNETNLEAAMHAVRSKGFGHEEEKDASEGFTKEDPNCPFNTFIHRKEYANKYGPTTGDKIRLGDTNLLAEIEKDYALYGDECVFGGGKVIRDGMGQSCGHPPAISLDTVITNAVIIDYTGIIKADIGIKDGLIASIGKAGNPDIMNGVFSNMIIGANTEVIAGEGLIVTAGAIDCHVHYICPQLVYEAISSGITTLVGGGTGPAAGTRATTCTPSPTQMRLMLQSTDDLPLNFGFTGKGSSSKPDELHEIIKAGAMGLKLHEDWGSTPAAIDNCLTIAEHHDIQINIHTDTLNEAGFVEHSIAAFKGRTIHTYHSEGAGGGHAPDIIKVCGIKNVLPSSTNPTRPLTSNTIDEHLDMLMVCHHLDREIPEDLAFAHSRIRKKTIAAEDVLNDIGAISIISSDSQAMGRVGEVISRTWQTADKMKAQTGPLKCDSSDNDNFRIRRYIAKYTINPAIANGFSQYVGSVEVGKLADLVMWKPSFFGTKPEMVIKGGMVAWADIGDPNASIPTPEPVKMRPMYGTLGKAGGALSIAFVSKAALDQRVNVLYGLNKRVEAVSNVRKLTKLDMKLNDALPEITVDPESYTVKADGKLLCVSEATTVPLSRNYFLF

For the molecule `O=Cc1cc(-c2ccccc2)cs1` [2a, 4-Phenylthiophene-2-carbaldehyde], the “%age Activity at 25 μg (urease inhibition)” value is recorded as 45 ± 0.0162% and the “%age Activity at 50 μg (urease inhibition)” value was 86.9 ± 0.012%.

As for `O=Cc1cc(-c2cc(C(F)(F)F)cc(C(F)(F)F)c2)cs1` [2b, 4-(3,5-Bis(trifloromethyl)phenyl)thiophene-2-carbaldehyde], the “%age Activity at 25 μg (urease inhibition)” value was 35 ± 0.014% and the “%age Activity at 50 μg (urease inhibition)” value is listed as 87.0 ± 0.084%.

For `O=Cc1cc(-c2ccc(Cl)c(Cl)c2)cs1` [2h, 4-(3,4-Dichlorophenyl)thiophene-2-carbaldehyde], the “%age Activity at 25 μg (urease inhibition)” value was 44 ± 0.084% and the “%age Activity at 50 μg (urease inhibition)” value was determined as 86.4 ± 0.44%.

Turning to `N#Cc1cc(-c2csc(C=O)c2)cc(C(F)(F)F)c1` [2d, 3-(5-Formylthiophene-3-yl)-5-(trifloromethyl)benzonitrile], the “%age Activity at 25 μg (urease inhibition)” value was found to be 37 ± 0.0042% and the “%age Activity at 50 μg (urease inhibition)” value is 88.7 ± 0.005%.

For `Cc1ccc(-c2csc(C=O)c2)cc1` [2e, 4-p-Tolylthiophene-2-carbaldehyde], the “%age Activity at 25 μg (urease inhibition)” value stood at 44.5 ± 0.057% and the “%age Activity at 50 μg (urease inhibition)” value is 76.5 ± 0.05%.

As to `O=Cc1cc(-c2ccc(F)c(Cl)c2)cs1` [2i, 4-(3-Chloro-4-fluorophenyl)thiophene-2-carbaldehyde], the “%age Activity at 25 μg (urease inhibition)” value was found to be 46.2 ± 0.0042% and the “%age Activity at 50 μg (urease inhibition)” value is on record as 90.6 ± 0.05%.

For the molecule `O=Cc1cc(-c2ccc(Cl)s2)cs1` [2c], the “%age Activity at 25 μg (urease inhibition)” value amounted to 44 ± 0.0042% and the “%age Activity at 50 μg (urease inhibition)” value came out at 87.8 ± 0.006%.

For `COc1ccc(-c2csc(C=O)c2)cc1` [2f, 4-(4-Methoxyphenyl)thiophene-2-carbaldehyde], the “%age Activity at 25 μg (urease inhibition)” value worked out at 42.3 ± 0.0007% and the “%age Activity at 50 μg (urease inhibition)” value came out at 80.2 ± 0.0017%.

With `Cc1cc(C)cc(-c2csc(C=O)c2)c1` [2g, 4-(3,5-Dimethylphenyl)thiophene-2-carbaldehyde], the “%age Activity at 25 μg (urease inhibition)” value was 42.5 ± 0.0070% and the “%age Activity at 50 μg (urease inhibition)” value turned out to be 87.2 ± 0.5%.

`Cc1ccc(-c2csc(C=O)c2)s1` [2j, 5-Methyl-2,3-bisthiophene-5-carbaldehyde]: the “%age Activity at 25 μg (urease inhibition)” value stood at 2 ± 0.219% and the “%age Activity at 50 μg (urease inhibition)” value is reported as 9.7 ± 0.2%.
